Reference: ChEMBL document CHEMBL1201862, “PubChem BioAssay data set” (2004)
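Results reflect a 48-hour exposure of cells in 96-well plates to compound at five concentrations. The concentration for 50% growth inhibition is given as GI50.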 Active and inactive are the calls of the source. Rule as the data show it: active = GI50 up to about 1.1 µM and inactive = higher.

Legend:
Test in all cases: DTP human tumour cell line panel, 48 h
[1] = test system: MDA-MB-231
[2] = test system: DU-145
[3] = test system: UO-31
[4] = test system: SK-OV-3
[5] = test system: OVCAR-5
[6] = test system: SN12C
[7] = test system: NCI-H522
[8] = test system: U-251
[9] = test system: SW-620
[10] = test system: MOLT-4
[11] = test system: SK-MEL-5
[12] = test system: COLO 205
[13] = test system: SR
[14] = test system: SK-MEL-2
[15] = test system: CCRF-CEM
[16] = test system: OVCAR-4
[17] = test system: EKVX
[18] = test system: BT-549
[19] = test system: ACHN
[20] = test system: SF-268
[21] = test system: Hs-578T
[22] = test system: HOP-92
[23] = test system: NCI/ADR-RES
[24] = test system: IGROV-1
[25] = test system: OVCAR-8
[26] = test system: UACC-257
[27] = test system: CAKI-1
[28] = test system: HCC 2998
[29] = test system: RXF 393
[30] = test system: HCT-116
[31] = test system: RPMI-8226
[32] = test system: T47D
[33] = test system: OVCAR-3
[34] = test system: NCI-H226
[35] = test system: MDA-MB-435
[36] = test system: PC-3
[37] = test system: KM12
[38] = test system: UACC-62
[39] = test system: K562
[40] = test system: HOP-62
[41] = test system: SNB-19
[42] = test system: SNB-75
[43] = test system: MDA-N
[44] = test system: TK-10
[45] = test system: 786-0
[46] = test system: LOX IMVI
[47] = test system: SK-MEL-28
[48] = test system: A549
[49] = test system: A498
[50] = test system: HL-60
[51] = test system: HCT-15
[52] = test system: SF-295
[53] = test system: NCI-H23
[54] = test system: MCF7
[55] = test system: SF-539
[56] = test system: HT-29
[57] = test system: Malme-3M
[58] = test system: M14
[59] = test system: NCI-H460
[60] = test system: DLD-1
[61] = test system: DMS-273

With `N=C(N)CCNC(=O)C1CCC(N)=N1` (stereo not given) the GI50 [1] was 14.7 µM (inactive), the GI50 [2] was 4.98 µM (inactive) and the GI50 [3] was 18.2 µM (inactive). For the same molecule, the GI50 [4] was 9.59 µM (inactive), the GI50 [5] was 19.1 µM (inactive) and the GI50 [6] was 5.27 µM (inactive). For the same molecule, the GI50 [7] was 23 µM (inactive), the GI50 [8] was 7.89 µM (inactive) and the GI50 [9] was 22.1 µM (inactive). For the same molecule, the GI50 [10] was 12.2 µM (inactive), the GI50 [11] was 16.4 µM (inactive) and the GI50 [12] was 5.61 µM (inactive). The GI50 [13] was 18.5 µM (inactive), the GI50 [14] was 27.2 µM (inactive) and the GI50 [15] was 12.5 µM (inactive). For the same molecule, the GI50 [16] was 9.48 µM (inactive), the GI50 [17] was 9.12 µM (inactive) and the GI50 [18] was 43.4 µM (inactive). For the same molecule, the GI50 [19] was 13.8 µM (inactive), the GI50 [20] was 10.3 µM (inactive) and the GI50 [21] was 8.36 µM (inactive). The GI50 [22] was 11.6 µM (inactive), the GI50 [23] was 26.2 µM (inactive) and the GI50 [24] was 8.49 µM (inactive). For the same molecule, the GI50 [25] was 7.28 µM (inactive), the GI50 [26] was 13.7 µM (inactive) and the GI50 [27] was 10.6 µM (inactive). For the same molecule, the GI50 [28] was 4.95 µM (inactive), the GI50 [29] was 35.1 µM (inactive) and the GI50 [30] was 13.1 µM (inactive). For the same molecule, the GI50 [31] was 29.9 µM (inactive), the GI50 [32] was 6.5 µM (inactive) and the GI50 [33] was 9.82 µM (inactive). For the same molecule, the GI50 [34] was 18.1 µM (inactive), the GI50 [35] was 31.5 µM (inactive) and the GI50 [36] was 6 µM (inactive). For the same molecule, the GI50 [37] was 6.79 µM (inactive), the GI50 [38] was 14 µM (inactive) and the GI50 [39] was 13.2 µM (inactive). For the same molecule, the GI50 [40] was 4.38 µM (inactive), the GI50 [41] was 6.76 µM (inactive) and the GI50 [42] was 12.2 µM (inactive). The GI50 [43] was 21.4 µM (inactive), the GI50 [44] was 22.7 µM (inactive) and the GI50 [45] was 13.1 µM (inactive). The GI50 [46] was 15.8 µM (inactive), the GI50 [47] was 19.2 µM (inactive) and the GI50 [48] was 6.49 µM (inactive). For the same molecule, the GI50 [49] was 16 µM (inactive), the GI50 [50] was 37.5 µM (inactive) and the GI50 [51] was 37.9 µM. For the same molecule, the GI50 [52] was 18.9 µM (inactive), the GI50 [53] was 16.1 µM (inactive) and the GI50 [54] was 16.2 µM (inactive). The GI50 [55] was 11.6 µM (inactive), the GI50 [56] was 5.2 µM (inactive) and the GI50 [57] was 7.5 µM (inactive). The GI50 [58] was 24.7 µM (inactive) and the GI50 [59] was 7.55 µM (inactive).

With `COc1ccc2c(c1)-c1nn(CCCN(C)C)c3ccc([N+](=O)[O-])c(c13)N2` [PYRAZOLOACRIDINE] the GI50 [2] was 0.484 µM (active), the GI50 [6] was 0.199 µM (active) and the GI50 [9] was 0.133 µM (active). The GI50 [10] was 0.0662 µM (active), the GI50 [60] was 0.262 µM (active) and the GI50 [11] was 0.536 µM (active). The GI50 [13] was 0.173 µM (active), the GI50 [14] was 0.647 µM (active) and the GI50 [20] was 0.283 µM (active). For the same molecule, the GI50 [21] was 0.603 µM (active), the GI50 [23] was 0.0986 µM (active) and the GI50 [25] was 0.118 µM (active). The GI50 [27] was 0.396 µM (active), the GI50 [30] was 0.0986 µM (active) and the GI50 [31] was 0.305 µM (active). For the same molecule, the GI50 [61] was 0.135 µM (active), the GI50 [45] was 0.191 µM (active) and the GI50 [53] was 0.662 µM (active). The GI50 [54] was 0.333 µM (active), the GI50 [56] was 0.137 µM (active) and the GI50 [58] was 0.61 µM (active).
